Measurements from patent US20260199485A1, “RNA DEGRADERS AND USES THEREOF” (Arrakis Therapeutics, Inc., priority 2022, published 2026).

Biological target: T1, CNOT7 (Homo sapiens, UniProt Q9UIV1)
T1 construct: biotin (biotinylated); purchased Ichor Life Sciences
Assay: Binding of compounds to CNOT7 by surface plasmon resonance (SPR)
Details: Table 4; dissociation constant for CNOT7
Procedure: Surface plasmon resonance (SPR) was used to evaluate the binding of compounds to CNOT7. Experiments were performed on a Biacore 8K (Cytiva) with a running buffer consisting of 20 mM HEPES pH7.5, 100 mM KCl, 3 mM MgCl2, 1 mM TCEP, 0.05% tween-20, 2% DMSO. Briefly, biotinylated CNOT7 (Ichor Life Sciences) at a concentration of 70 μg/ml was immobilized to a streptavidin coated chip (Cytiva sensor chip SA) for 1200 sec at a flow rate of 5 μl/min (typical immobilization level 7,500 RU). For compound binding experiments, various concentrations of analyte were flowed over the chip with 120 sec association phase, 120 sec dissociation phase, at a flow rate of 30 ul/min and collection rate of 10 Hz. Reference channel subtraction and solvent correction were applied to all sensograms prior to data analysis. Sensograms were fit to 1:1 steady state affinity model. FIGS. 3 and 4 show the binding of exemplary compounds and the AMP control (a known CNOT7 active site binder) at various concentrations to CNOT7.

T1 sequence (Q9UIV1 whole entry): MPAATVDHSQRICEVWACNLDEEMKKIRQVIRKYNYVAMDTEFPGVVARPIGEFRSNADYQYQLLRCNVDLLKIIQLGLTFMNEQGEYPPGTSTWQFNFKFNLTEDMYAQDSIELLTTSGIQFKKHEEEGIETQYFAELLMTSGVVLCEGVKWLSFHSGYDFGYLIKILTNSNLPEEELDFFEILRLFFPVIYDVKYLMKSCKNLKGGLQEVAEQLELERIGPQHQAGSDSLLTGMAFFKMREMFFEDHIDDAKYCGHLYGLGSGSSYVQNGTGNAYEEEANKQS

Row | SMILES | Kd [µM]
1 | O=C(CSc1cc[nH]c(=O)n1)NCc1ccc2c(c1)OCO2 [Compound I-2] | > 25
2 | COc1cccc(CNC(=O)CSc2nc(=O)[nH]cc2C)c1 [Compound I-5] | > 25
3 | Cc1c[nH]c(=O)nc1SCC(=O)N(C)Cc1ccc2c(c1)OCO2 [Compound I-6] | > 25

Same assay, conditions: Table 5; dissociation constant for CNOT7 by SPR

Row | SMILES | Kd [µM]
4 | COc1ccc(C(C)NC(=O)C2CC2c2nc(=O)[nH]cc2C)cc1 (mixture of isomers) [Compound I-239] | > 25
5 | COc1ccc(C(C)NC(=O)C2CC2c2nc(=O)[nH]cc2C)cc1 (mixture of isomers) [Compound I-240] | > 25
6 | COc1ccc([C@H](C)NC(=O)CSc2nc(=O)[nH]cc2C)cc1 [Compound I-26] | > 25
7 | COc1ccc([C@@H](C)NC(=O)CSc2nc(=O)[nH]cc2C)cc1 [Compound I-27] | 1 to 25
8 | COc1ccc(C(C)NC(=O)CSc2nc(=O)[nH]cc2C)cc1 (centres unmarked) [Compound I-28] | 1 to 25
9 | COc1ccc(CNC(=O)COc2nc(=O)[nH]cc2C)cc1 [Compound I-31] | > 25
10 | COc1ccc(CNC(=O)CNc2nc(=O)[nH]cc2C)cc1 [Compound I-32] | > 25
11 | COc1ccc(CNC(=O)CCc2nc(=O)[nH]cc2C)cc1 [Compound I-34] | 1 to 25
12 | COc1ccc(CNC(=O)CSc2nc(=O)[nH]cc2C)nc1 [Compound I-42] | 1 to 25
13 | COc1ccc(CNC(=O)CSc2nc(=O)[nH]cc2C)cn1 [Compound I-43] | > 25
14 | COc1cnc(CNC(=O)CSc2nc(=O)[nH]cc2C)nc1 [Compound I-44] | 1 to 25
15 | COc1ccc(C(CO)NC(=O)CSc2nc(=O)[nH]cc2C)cc1 (centres unmarked) [Compound I-46] | 1 to 25
16 | COc1ccc([C@@H](CO)NC(=O)CSc2nc(=O)[nH]cc2C)cc1 [Compound I-48] | 1 to 25
17 | Cc1c[nH]c(=O)nc1SCC(=O)NCc1ccc2c(c1)OCCO2 [Compound I-50] | 1 to 25
18 | Cc1c[nH]c(=O)nc1SCC(=O)NCc1ccc2oc(=O)[nH]c2c1 [Compound I-51] | > 25
19 | Cc1c[nH]c(=O)cc1SCC(=O)NCc1ccc2c(c1)NC(=O)CO2 [Compound I-52] | > 25
20 | Cc1c[nH]c(=O)nc1SCC(=O)NCc1ccc2c(c1)NCCO2 [Compound I-54] | > 25
21 | Cc1c[nH]c(=O)nc1SCC(=O)NCc1ccc2c(c1)N(C)CCO2 [Compound I-55] | > 25
22 | Cc1c[nH]c(=O)nc1SCC(=O)NCc1ccc2c(c1)CC(=O)N2 [Compound I-56] | 1 to 25
23 | Cc1c[nH]c(=O)nc1SCC(=O)NCc1ccc2c(c1)NC(=O)C2 [Compound I-57] | 1 to 25
24 | COCCOCCC(Sc1nc(=O)[nH]cc1C)C(=O)NCc1ccc(OC)cc1 (centres unmarked) [Compound I-165, 4-(2-methoxyethoxy)-N-[(4-methoxyphenyl)methyl]-2-[(5-methyl-2-oxo-1H-pyrimidin-4-yl)sulfanyl]butanamide] | 1 to 25
25 | COCCOCC[C@@H](Sc1nc(=O)[nH]cc1C)C(=O)NCc1ccc(OC)cc1 [Compound I-166, (2R)-4-(2-methoxyethoxy)-N-[(4-methoxyphenyl)methyl]-2-[(5-methyl-2-oxo-1H-pyrimidin-4-yl)sulfanyl]butanamide] | 1 to 25
26 | COCCOCC[C@H](Sc1nc(=O)[nH]cc1C)C(=O)NCc1ccc(OC)cc1 [Compound I-167, (2S)-4-(2-methoxyethoxy)-N-[(4-methoxyphenyl)methyl]-2-[(5-methyl-2-oxo-1H-pyrimidin-4-yl)sulfanyl]butanamide] | 1 to 25
27 | COc1ccc(CNC(=O)C(C)Sc2nc(=O)[nH]cc2C)cc1 (centres unmarked) [Compound I-168] | 1 to 25
28 | COCC(Sc1nc(=O)[nH]cc1C)C(=O)NCc1ccc(OC)cc1 (centres unmarked) [Compound I-169] | 1 to 25
29 | CCC(Sc1nc(=O)[nH]cc1C)C(=O)NCc1ccc(OC)cc1 (centres unmarked) [Compound I-170] | 1 to 25
30 | COCC(Sc1nc(=O)[nH]cc1C)C(=O)NCc1ccc2c(c1)CC(=O)N2 (centres unmarked) [Compound I-191] | 0.1 to 1

Row | SMILES | Kd [µM]
31 | COCC(Sc1nc(=O)[nH]cc1C)C(=O)NC(C)c1ccc2c(c1)CC(=O)N2 (centres unmarked) [Compound I-192] | 1 to 25
32 | COC[C@H](Sc1nc(=O)[nH]cc1C)C(=O)N[C@H](C)c1ccc2c(c1)CC(=O)N2 [Compound I-193] | 1 to 25
33 | COc1ccc(C2(NC(=O)CSc3nc(=O)[nH]cc3C)CC2)cc1 [Compound I-197] | 1 to 25
34 | COc1ccc2c(c1)CN(C(=O)CSc1nc(=O)[nH]cc1C)C2 [Compound I-205] | > 25
35 | CC[C@@H](NC(=O)CSc1nc(=O)[nH]cc1C)c1ccc(OC)cc1 [Compound I-217] | 1 to 25
36 | COc1ccc([C@H](NC(=O)CSc2nc(=O)[nH]cc2C)C(C)C)cc1 [Compound I-218] | 1 to 25
37 | Cc1c[nH]c(=O)nc1SCC(=O)N[C@@H](c1ccc(O)cc1)C1CC1 [Compound I-219] | 1 to 25
38 | COc1ccc([C@H](NC(=O)CSc2nc(=O)[nH]cc2C)C(F)(F)F)cc1 [Compound I-221] | 1 to 25
39 | COc1ccc(C(C)NC(=O)CSc2nc(=O)[nH]cc2C2CC2)cc1 (centres unmarked) [Compound I-225] | > 25
40 | CCc1c[nH]c(=O)nc1SCC(=O)N[C@H](C)c1ccc(OC)cc1 [Compound I-226] | 1 to 25
41 | COc1ccc([C@@H](C)NC(=O)CSc2nc(=O)[nH]cc2F)cc1 [Compound I-228] | 1 to 25
42 | COc1ccc(C(C)NC(=O)CSc2nc(=O)[nH]cc2OC)cc1 (centres unmarked) [Compound I-230] | > 25
43 | COc1ccc(C(C)NC(=O)C2CC2c2nc(=O)[nH]cc2C)cc1 (centres unmarked) [Compound I-238] | > 25
44 | COc1ccc([C@@H](C)NC(=O)CSc2[nH]c(=O)[nH]c(=O)c2C)cc1 [Compound I-242] | > 25
45 | COc1ccc([C@@H](C)NC(=O)CSc2nc(=O)[nH]cc2C)cc1 [Compound I-247] | 1 to 25
46 | COc1ccc(C(C)(C)NC(=O)CSc2nc(=O)[nH]cc2C)cc1 [Compound I-249] | 1 to 25
47 | COc1ccc(CN2CCC(Sc3nc(=O)[nH]cc3C)C2=O)cc1 (centres unmarked) [Compound I-252] | > 25
48 | COc1ccc(CN2CC[C@H](Sc3nc(=O)[nH]cc3C)C2=O)cc1 [Compound I-254] | > 25
49 | COCC(Sc1nc(=O)[nH]cc1C)C(=O)NC(C)c1ccc(OC)cc1 (centres unmarked) [Compound I-266] | 1 to 25
50 | COCC(Sc1nc(=O)[nH]cc1C)C(=O)NC(C)c1ccc(OC)cc1 (centres unmarked) [Compound I-267] | 1 to 25
51 | CCOc1ccc([C@@H](C)NC(=O)CSc2nc(=O)[nH]cc2C)cc1 [Compound I-277] | 1 to 25
52 | COc1ccc(CN(CCO)C(=O)CSc2cc(=O)[nH]cc2C)cc1 [Compound I-287] | > 25
53 | Cc1c[nH]c(=O)nc1SCC(=O)NC(C)c1ccc(S(C)(=O)=O)cc1 (centres unmarked) [Compound I-294] | 1 to 25
54 | COc1ccc([C@@H](C)NC(=O)CSc2nc(=O)[nH]cc2Cl)cc1F [Compound I-306] | 1 to 25
55 | COc1ccc(C2(NC(=O)CSc3nc(=O)[nH]cc3Cl)CC2)cc1F [Compound I-307] | 0.1 to 1
56 | C[C@@H](NC(=O)CSc1nc(=O)[nH]cc1Cl)c1ccc(Cl)c(F)c1 [Compound I-314] | 1 to 25

Same assay, conditions: Table 6; dissociation constant for CNOT7 by SPR

Row | SMILES | Kd [µM]
57 | COc1cnc(CNC(=O)CSc2nc(=O)[nH]cc2C)cn1 [Compound I-45] | 1 to 25
58 | Cc1c[nH]c(=O)nc1SCC(=O)NCc1ccc2c(c1)COC2 [Compound I-58] | > 25
59 | COCCOC[C@@H](Sc1nc(=O)[nH]cc1C)C(=O)N[C@H](C)c1ccc(OC)cc1 [Compound I-172] | 1 to 25
60 | COCCOC[C@H](Sc1nc(=O)[nH]cc1C)C(=O)N[C@H](C)c1ccc(OC)cc1 [Compound I-173] | 1 to 25
61 | Cc1c[nH]c(=O)nc1SCC(=O)N[C@H](C)c1ccc2c(c1)CC(=O)N2 [Compound I-190] | 1 to 25
62 | COc1ccc2c(c1)CCN(C(=O)CSc1nc(=O)[nH]cc1C)[C@@H]2C [Compound I-199] | 0.1 to 1
63 | C#CCOCCOCCOCCOC[C@@H]1Cc2cc(OC)ccc2CN1C(=O)CSc1nc(=O)[nH]cc1C [Compound I-203] | 1 to 25
64 | COc1ccc([C@@H](C)NC(=O)CSc2nc(=O)[nH]cc2Cl)cc1 [Compound I-229] | 1 to 25
65 | COc1ccc(C(C)NC(=O)CSc2nc(=O)[nH]cc2C)cc1F (centres unmarked) [Compound I-244] | 1 to 25
66 | COc1ccc([C@@H](C)NC(=O)CSc2nc(=O)[nH]cc2C)c(C)c1 [Compound I-248] | 0.1 to 1
67 | COc1ccc([C@](C)(CO)NC(=O)CSc2nc(=O)[nH]cc2C)cc1 [Compound I-250] | 1 to 25
68 | COc1ccc([C@@H](C)NC(=O)[C@@H](CCOCCOCCOCCN=[N+]=[N-])Sc2cc[nH]c(=O)n2)cc1 [Compound I-261] | 1 to 25
69 | COc1ccc([C@@H](C)NC(=O)CSc2cc(=O)[nH]cc2C)nc1 [Compound I-281] | 1 to 25
70 | COc1cc(F)c([C@@H](C)NC(=O)CSc2nc(=O)[nH]cc2Cl)cc1F [Compound I-311] | 1 to 25
71 | COc1cc(F)c([C@@H](C)NC(=O)CSc2nc(=O)[nH]cc2Cl)c(F)c1 [Compound I-312] | 1 to 25
72 | COc1c(F)cc([C@@H](C)NC(=O)CSc2nc(=O)[nH]cc2Cl)cc1F [Compound I-313] | 1 to 25
73 | Cc1c[nH]c(=O)nc1SCC(=O)NC(C)c1ccc2c(c1)CC(=O)N2 (centres unmarked) [Compound I-322] | 1 to 25
74 | COCC(Sc1nc(=O)[nH]cc1Cl)C(=O)NC(C)c1ccc2c(c1)CC(=O)N2 (centres unmarked) [Compound I-323] | 1 to 25
75 | COc1ccc([C@@H](C)NC(=O)C2(Sc3nc(=O)[nH]cc3C)CCC2)cc1 [Compound I-324] | 1 to 25

Same assay, conditions: dissociation constant by SPR, Table 7

Row | SMILES | Kd [µM]
76 | COCC(Sc1nc(=O)[nH]cc1Cl)C(=O)NC(C)c1ccc2c(c1)CC(=O)N2 (centres unmarked) [Compound I-323] | 1 to 25
77 | COc1ccc([C@@H](C)NC(=O)C2(Sc3nc(=O)[nH]cc3C)CCC2)cc1 [Compound I-324] | 0.1 to 1
